Assay results published in US20100016357A1, “Use of Beta-Aminoalcohols for the Treatment of Inflammatory Disorders and Pain” (SOSEI R & D LTD., priority 2006, published 2010).

Assays:
[1] = test system: LPS-induced TNFα and IL1β cytokine production; assay: LPS Mouse Assay (serum cytokines by ELISA); assay type: in vivo, Balb C ByJ mice; settings: mice, i.p. or oral, 30 minutes before 1 mg/kg LPS i.p.; serum 2 hours after LPS
Protocol: 7 week old Balb C ByJ mice (24-28 g) were administered, either by i.p. (5 ml/kg) or oral (10 ml/kg) administration, with vehicle or test article. 30 minutes later these animals were challenged with an intraperitoneal injection of 1 mg/kg LPS. 2 hours after LPS challenge blood samples were collected under light isoflurane anaesthesia into normal tubes by retro-orbital puncture. Samples were allowed to clot at room temperature and then spun at 6000 g for 3 min at 4° C. Serum was stored at −20° C. until use. Serum TNFα and IL-10 levels were analysed in duplicate by ELISA technique.

Beta2 = target: T1, Beta2 (Cavia porcellus, UniProt Q8K4Z4); assay: Beta2 Agonism Functional Assay (inhibition of carbachol-stimulated tracheal muscle twitch); assay type: cell-based; settings: Guinea-pig trachea ring preparations contracted with carbachol
T1 construct: from tissue; host or cells: guinea-pig trachea rings
T1 sequence (Q8K4Z4 whole entry): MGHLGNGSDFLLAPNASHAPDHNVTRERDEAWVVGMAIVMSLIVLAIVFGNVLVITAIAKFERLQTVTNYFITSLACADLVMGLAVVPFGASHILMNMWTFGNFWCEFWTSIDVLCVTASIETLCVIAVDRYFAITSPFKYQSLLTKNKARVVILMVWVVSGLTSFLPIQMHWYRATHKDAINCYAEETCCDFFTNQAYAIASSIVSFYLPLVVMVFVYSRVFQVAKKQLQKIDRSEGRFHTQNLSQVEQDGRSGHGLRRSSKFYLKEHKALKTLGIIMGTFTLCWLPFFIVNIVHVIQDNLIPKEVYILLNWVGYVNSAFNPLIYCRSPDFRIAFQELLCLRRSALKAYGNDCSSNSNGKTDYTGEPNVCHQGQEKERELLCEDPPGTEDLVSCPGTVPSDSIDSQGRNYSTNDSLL
Protocol: Guinea-pig trachea ring preparations were suspended in Kreb's solution containing indomethacin. […] Beta2 agonism for each test compound was determined by its dose-dependant inhibition of carbachol-stimulated tracheal muscle twitch.

`Nc1c(Cl)cc(C(O)C2CCCCN2)cc1Cl` (single isomer, unassigned) [Compound 7, Erythro-(3,5-dichloro-4-amino-phenyl)-piperidin-2-yl-methanol] was tested, and the “effect on LPS-induced IL1β production” value [1] was “had effects”, the “effect on LPS-induced TNFα production” value [1] was “had effects” and the “beta2 agonism (in words)” value (Beta2) was “poor, beta2 agonists”. It also gave an IC50 (Beta2; inhibition of tracheal muscle twitch) of over 2 µM.

`Nc1c(Cl)cc(C(O)C2CCCCN2)cc1Cl` (single isomer, unassigned) [Compound 8, (Erythro)-(3,5-dichloro-4-amino-phenyl)-piperidin-2-yl-methanol] was tested, and the “effect on LPS-induced IL1β production” value [1] was “had effects”, the “effect on LPS-induced TNFα production” value [1] was “had effects” and the “beta2 agonism (in words)” value (Beta2) was “poor, beta2 agonists”.

For `Nc1c(Cl)cc(C(O)C2CCCCN2)cc1Cl` (single isomer, unassigned) [Compound 10, Threo-(3,5-dichloro-4-amino-phenyl)-piperidin-2-yl-methanol], the “effect on LPS-induced IL1β production” value [1] was “had effects”, the “effect on LPS-induced TNFα production” value [1] was “had effects” and the “beta2 agonism (in words)” value (Beta2) was “poor, beta2 agonists”.

For `Nc1c(Cl)cc(C(O)C2CCCCN2)cc1Cl` (single isomer, unassigned) [Compound 11, Threo-(3,5-Dichloro-4-amino-phenyl)-piperidin-2-yl-methanol], the “effect on LPS-induced IL1β production” value [1] was “had effects”, the “effect on LPS-induced TNFα production” value [1] was “had effects” and the “beta2 agonism (in words)” value (Beta2) was “poor, beta2 agonists”.
